One series can be described thus: in vitro. The following applies: human, hela cells, % viability.
For the molecule `COC(=O)c1ccc(S(=O)(=O)n2ccn(-c3cccc(C(F)(F)F)c3)c2=O)n1C` [CBK106594], the viability at 28.5 h, 10 µM was determined as 90.1%. For the molecule `CN1CCN(Cc2nc3c(c(=O)n(C)c(=O)n3C)n2Cc2ccc(Br)cc2)CC1` [CBK269310], the viability at 28.5 h, 10 µM came to 87.9%. On to `CCCCc1ccc(NS(=O)(=O)c2ccc(C)c(C(=O)O)c2)cc1` [CBK296111], for which the viability at 28.5 h, 10 µM turned out to be 116%. Still for that read-out and setting: the same measure for `C=CCn1c(SCC(=O)Nc2ccnc3ccccc23)nnc1-c1cccnc1` [CBK268723]: 88.6%; for `OC(CN1CCC(O)(c2ccccc2F)CC1)c1ccc(F)cc1` (centres unmarked) [CBK282492]: 87.2%; for `O=C(Nc1ncccc1Cl)c1ccc(F)cc1` [CBK288215]: 93.1%.

For the molecule `CS(=O)(=O)N1CC2(CCN(Cc3ccccc3F)CC2)c2ccccc21` [CBK084004], the viability at 28.5 h, 10 µM came out at 103%. Consider `O=C(CCCN1C(=O)/C(=C\c2cccs2)SC1=S)Nc1cc(Cl)ccc1O` [CBK263673], for which the viability at 28.5 h, 10 µM turned out to be 99.5%.

On to `Cc1ccc(NC(C(N)=O)c2c(C)[nH]c(=O)[nH]c2=O)cc1` (centres unmarked) [CBK111355], for which the viability at 28.5 h, 10 µM was 98.4%. `COc1ccc(CN2CCCN(S(=O)(=O)c3ccc(-c4ccccc4)cc3)CC2)cc1F` [CBK063108]: the viability at 28.5 h, 10 µM came out at 111%. The same measure, in the same setting: as for `O=C(NCc1cccnc1)N1CCCC(CO)C1` (centres unmarked) [CBK156037], the figure is 90.5%. Same read-out and setting: the same measure for `COc1cccc(C(=O)N2CCC(Cc3ccccc3-c3ccccc3C)(C(N)=O)CC2)c1` [CBK285722]: 94.5%; for `N#CCSC1=CC(=O)CC(c2ccccc2)S1` (centres unmarked) [CBK008460]: 92.1%. Still for that read-out and setting: as for `CC(C)Cc1cc(CNC(=O)Nc2cc(-c3cccnc3)nn2C)no1` [CBK307048], the figure is 84.9%; as for `CC(C)c1nc2c(n1C)CCN(Cc1cc(=O)n3ccccc3n1)C2` [CBK305061], 92.6%. With `Cc1nn(-c2ccccc2)c(Cl)c1C1NC(=O)c2c(sc(C)c2C)N1` (centres unmarked) [CBK288086], the viability at 28.5 h, 10 µM was found to be 96%. On to `Cc1ccc(-c2nccnc2OCCOc2ccccc2)c(C)c1` [CBK106991], for which the viability at 28.5 h, 10 µM is 86.1%. Still for that read-out and setting: the same measure for `COc1ccccc1NC(=O)NCCC1SC(NC2CCCCCC2)=NC1=O` (centres unmarked) [CBK067473]: 91.8%; for `CN1CCC2(CCC1=O)CC(N)c1ccccc1O2` (centres unmarked) [CBK284456]: 103%. The same measure, in the same setting: as for `O=c1[nH]ccn1CCNc1cc(-c2cccc3oc4ccccc4c23)ncn1` [CBK037726], the figure is 102%. For `O=C(O)C1CCCN(C(=O)Cc2csc(COc3ccc(Cl)cc3)n2)C1` (centres unmarked) [CBK304501], the viability at 28.5 h, 10 µM turned out to be 88.1%.

Take `O=C(CNS(=O)(=O)c1ccc(Cl)c(Cl)c1Cl)N1CCOCC1` [CBK034472]: the viability at 28.5 h, 10 µM turned out to be 110%. For `Nc1nc2nn([C@H]3C[C@@H](O)[C@@H](CO)O3)cc2c(=O)[nH]1` [CBK201218], the viability at 28.5 h, 10 µM turned out to be 90.3%.

Turning to `COCC(=O)N1CCN2C(=O)c3cc(-c4ccccc4F)ccc3NC(=O)[C@H]2C1` [CBK289587], the viability at 28.5 h, 10 µM is 82.4%. In the case of `CCCC(=O)N1CCC(c2nc3ccccn3c2NC(C)(C)C)CC1` [CBK284744], the viability at 28.5 h, 10 µM was 81.9%. For the molecule `CC1CCCCN1C(=O)CCc1nc2sc3c(c2c(=O)[nH]1)CCCC3` (centres unmarked) [CBK306086], the viability at 28.5 h, 10 µM came out at 112%. As for `COc1cccc(C(=O)COC(=O)c2cc(-c3ccccc3)nc3ccc(Br)cc23)c1` [CBK265143], the viability at 28.5 h, 10 µM is 94.4%.

On to `O=C(Nc1cncc(N2CCNCC2)n1)c1coc2c1C(=O)CCC2` [CBK004229T], for which the viability at 28.5 h, 10 µM was 96.8%. The same measure, in the same setting: the same measure for `O=C1NC(=O)C(CCCCN2CCCC3(CCN(C(=O)Cc4c[nH]c5ccccc45)C3)C2)N1` (centres unmarked) [CBK132059]: 83.8%; for `Cc1nc(-c2nnc3ccc(Cl)nn23)c(Br)[nH]1` [CBK028706B]: 87.5%; for `CC(O)CNc1nccnc1-c1ccccc1` (centres unmarked) [CBK089257]: 95.7%.

In the case of `CN1CCN(C)C(COc2ncccc2C(F)(F)F)C1` (centres unmarked) [CBK113458], the viability at 28.5 h, 10 µM is 90.5%. For the molecule `Nc1ncc(-c2ccc(C(F)(F)F)cc2)c(C2CCCN(C(=O)CN3CCCC3)C2)n1` (centres unmarked) [CBK285649], the viability at 28.5 h, 10 µM came out at 91.6%. As to `CC(C)CC(NC(=O)C1CCC(C)CC1)C(=O)O` (centres unmarked) [CBK287212], the viability at 28.5 h, 10 µM came out at 88.2%.

Regarding `Cc1ccc(NC(=O)Cn2cnc3c(-c4ccccc4)csc3c2=O)cc1` [CBK287812], the viability at 28.5 h, 10 µM was determined as 104%.

In the case of `COc1ccc(CNC(=O)c2cc(S(=O)(=O)N(C)C)cs2)cc1` [CBK307579], the viability at 28.5 h, 10 µM was determined as 87.1%. Same read-out and setting: as for `CC(CNC(=O)CCc1cn(C)c2ccccc12)N1CCOCC1` (centres unmarked) [CBK281996], the figure is 87.4%. Consider `O=C(O)c1ccccc1CSc1ccccn1` [CBK270213], for which the viability at 28.5 h, 10 µM is 98%. On the same count and under the same terms, as for `O=C(Nc1ccccc1C(=O)NCCCc1nc2ccccc2[nH]1)c1cccs1` [CBK296641], the figure is 107%; as for `O=[N+]([O-])c1cc(C(F)(F)F)ccc1NCCNC(=S)Nc1ccc(Cl)cc1` [CBK263578], 92.9%. For the molecule `O=C(c1cn2ccccc2n1)N1CCC(c2ccccc2)C1` (centres unmarked) [CBK281850], the viability at 28.5 h, 10 µM was determined as 104%. Regarding `CC(C)CC(C(=O)Nc1ccc(C2CCCC2)cc1)N1CCN(C)CC1` (centres unmarked) [CBK024386C], the viability at 28.5 h, 10 µM is 87%. Same read-out and setting: the same measure for `CC(=O)NCCn1cc2c(n1)[C@H]1CN(C(=O)C(C)(C)C)C[C@H]1CC2` [CBK282168]: 102%.

In the case of `Fc1ccc(Sc2nc3ccccc3nc2N2CCCC2)cc1` [CBK089543], the viability at 28.5 h, 10 µM worked out at 101%. Still for that read-out and setting: the same measure for `NC(=O)c1c(NC(=O)/C=C/c2c(F)cccc2Cl)sc2c1CCCCCC2` [CBK262631]: 98.2%; for `CS(=O)(=O)NCCCNc1ccc(C(F)(F)F)cc1[N+](=O)[O-]` [CBK263741]: 73.1%; for `CN(C)CCNC(=O)c1cccc(-c2cc(N3CCCN(C)CC3)n3nccc3n2)c1` [CBK037143]: 86.2%. For `Cc1ccc(OCC(O)CN(C)S(=O)(=O)O)c([N+](=O)[O-])c1` (centres unmarked) [CBK262062K], the viability at 28.5 h, 10 µM came to 85.3%. Regarding `Cc1n[nH]c2c1CN(Cc1nc(C)c(C)n1C)CC2` [CBK307456], the viability at 28.5 h, 10 µM worked out at 84.7%. With `CCOC(=O)C1(C2CCCCC2)CCN(C(=O)c2cccnc2)CC1` [CBK137104T], the viability at 28.5 h, 10 µM is 95.4%. Still for that read-out and setting: the same measure for `O=C(c1ccco1)N1CCN(C(=O)C(c2ccccc2)c2ccccc2)CC1` [CBK144462]: 88.9%.

With `COc1ccc(OCc2nc3ccccc3n2C(C)c2ccccc2)cc1` (centres unmarked) [CBK293941], the viability at 28.5 h, 10 µM amounted to 116%. Same read-out and setting: as for `CC1CN(CCCCNCc2cn(C)nc2-c2cccnc2)CC(C)O1` (centres unmarked) [CBK304453], the figure is 92.6%; as for `COc1ccc(NC(=O)CSc2nnc(C(O)c3ccccc3)n2C)cc1` (centres unmarked) [CBK266053], 110%. Same read-out and setting: the same measure for `O=C(O)c1ccc(S(=O)(=O)c2ccc3c(c2)C(=O)N(c2nccs2)C3=O)cc1` [CBK261189]: 90.1%. For `O=C(NCCc1cccnc1)Nc1ccc(CN2CCCC2=O)cc1` [CBK306461], the viability at 28.5 h, 10 µM stood at 80%.

In the case of `CCCC/C=C/c1cncc(NCc2cccc(Cl)c2)n1` [CBK065293], the viability at 28.5 h, 10 µM amounted to 97.3%. In the case of `N#Cc1c[nH]c(C(=O)NC2CCN(C(=O)c3ccccc3)CC2)c1` [CBK306433], the viability at 28.5 h, 10 µM was 91%. In the case of `Cc1cccc(-c2ncc(NC(=O)COc3ccc([N+](=O)[O-])cc3)nc2-c2cccnc2)c1` [CBK037096], the viability at 28.5 h, 10 µM was 97.8%. Still for that read-out and setting: as for `O=C(NCc1ccc2c(c1)OCO2)c1cncc(-c2ccc(C(=O)N3CCOCC3)cc2)c1` [CBK158614], the figure is 108%; as for `CN(Cc1ccccc1)c1nccnc1-c1cccnc1` [CBK037414], 93.5%; as for `CCNC(=O)NC[C@H]1C[C@@H]2CCN1C[C@@H]2c1cc(C2CCCC2)nc(C)n1` [CBK289122], 81.6%.

Turning to `O=C(CO)N1CC2(CCN(CCCn3c(=O)[nH]c4ccccc43)CC2)c2ccccc21` [CBK131506], the viability at 28.5 h, 10 µM amounted to 91.9%. The same measure, in the same setting: as for `O=C(c1ccc2ncccc2c1)N1CCN(Cc2ccccc2)CC1` [CBK200175], the figure is 99.1%; as for `COc1cc(NC(=O)COc2ccc3ccccc3c2)c(C(=O)O)cc1OC` [CBK264181], 103%. Regarding `COc1ccc(-c2cnn(-c3ccccc3CN(C)C)n2)cc1` [CBK112762], the viability at 28.5 h, 10 µM is 106%. On to `O=C(NCCO)Nc1ccc2nccnc2c1` [CBK027577], for which the viability at 28.5 h, 10 µM turned out to be 71.5%. Turning to `CCOC(=O)c1cnc(SC(C)C(=O)N2CCc3ccccc32)nc1N` (centres unmarked) [CBK305007], the viability at 28.5 h, 10 µM was determined as 86.9%. On the same count and under the same terms, the same measure for `O=C(O)CCCNS(=O)(=O)c1ccc(I)cc1` [CBK269160]: 102%; for `CCn1cncc1CN1CCCC(O)(c2ccc(F)cc2)CC1` (centres unmarked) [CBK284838]: 90.6%; for `O=c1ccc2ccc(-c3cccc(OCc4ccccc4)c3)nc2[nH]1` [CBK073722]: 95.9%.

On to `c1ccc2c(CNCCN3CCOCC3)cccc2c1` [CBK278156C], for which the viability at 28.5 h, 10 µM is 90.9%. On to `COc1nccnc1OC1CCN(CCOc2ccccc2)CC1` [CBK084260], for which the viability at 28.5 h, 10 µM came out at 94.4%. Still for that read-out and setting: the same measure for `c1ccc(NCc2ncnc3c2ncn3C2CCCCO2)cc1` (centres unmarked) [CBK021593]: 100%; for `O=C(O)C(Cc1cnc[nH]1)N1C(=O)c2ccccc2C1=O` (centres unmarked) [CBK217815]: 110%; for `COc1ccc2c(Cl)c(C(=O)NCCc3ccc(S(N)(=O)=O)cc3)sc2c1` [CBK268120]: 104%. The same measure, in the same setting: the same measure for `COc1cccc(C(=O)C2=C(O)C(=O)N(CCCn3ccnc3)C2c2cccc(F)c2)c1` (centres unmarked) [CBK266419]: 107%. Still for that read-out and setting: as for `CC[C@@H]1COCCN1C(=O)c1sc2ccccc2c1Cl` [CBK103641], the figure is 90.3%.

Take `O=C1NCCNC(=O)C2(C/C=C/COc3ccccc31)CCN(Cc1ccccc1F)CC2` [CBK292024]: the viability at 28.5 h, 10 µM amounted to 101%.

Staying with this series, now noted: human, hela cells, % viability, bulk resorufin, single well.
Consider `N#CC(CCN1CCOCC1)(c1ccccc1)c1ccccc1` [CBK263317], for which the viability at 28.5 h, 10 µM stood at 90.5%.

Source of the values: PMC12040169 (PLOS Biology, 2025).
